Measurements published in US20230090255A1, “MAGL INHIBITOR, PREPARATION METHOD THEREFOR AND USE THEREOF” (LUNAN PHARMACEUTICAL GROUP CORPORATION, priority 2019, published 2023).
Counter-ions that a name gives are not always drawn.

Assays:
[1] = tested on: mice forced swimming test; test: Mice forced swimming test; assay type: in vivo, ICR mice; settings: for Accumulated immobility time: forced swimming, 6 min, 5 mg/kg intragastric once per day 10 d, 1 h after final administration
Protocol: (§1) Male ICR mice having a body weight of 18-22 g. The animals were active on a schedule of normal illumination for 12 h and in the dark for 12 h. Environmental temperature and relative humidity were relatively kept for 22±1° C. and 55±5%.
(§2) There were 7 groups of laboratory mice, 10 pieces each group, set as a control group (normal saline), a positive control group (fluoxetine hydrochloride capsule, 5 mg/kg), 5 MAGLZ-II series of administration treatment groups: MAGLZ-II-06, MAGLZ-II-07, MAGLZ-II-11, MAGLZ-II-17 and MAGLZ-II-18, respectively, with an administration concentration of 5 mg/kg.
(§3) All medicaments were used once per day via intragastric administration with a dose of 20 mL/kg (body weight), lasting for 10 d. 1 h later after the final administration, the detection of animal behaviors was started.
Mice forced swimming test was performed according to the method established by Porsolt (Porsolt R D. Behavioural despair in mice: A primary screening test for antidepressants[J]. Arch. Int. Pharmacolodyn. 1977, 229). […] Each mouse was judged as still when stopped struggling, kept suspension in water and only made necessary movement to keep the head above the water.
(§4) All data are shown by x̅±SD, and the comparison among groups is analyzed by one-way variance.

[2] = tested on: mice tail suspension test; test: Mice tail suspension test; assay type: in vivo, ICR mice; settings: final 4 min of 6 min, 5 mg/kg intragastric once per day 10 d
Protocol: as §1, §2, §3
The tail suspension test (TST) was performed by the method established by Porsolt, et al. (Porsolt R D, Le Pichon M, Jalfre M. Depression: a new animal model sensitive to antidepressant treatments[J]. Nature, 1977, 266(5604):730-732). Mice were respectively suspended on the tail portions with tail suspension clamps at a distance of 10 mm away from the tail portion of the box (250 mm×250 mm×300 mm) and a distance of 5 cm where the head of each mouse was away from the bottom portion. Noise was tested in a dark room having minimum background, and each mouse was suspended for 6 min, and an immobility time was recorded at intervals in the final 4 min. Judgment standard: the mice stopped struggling and kept still completely.
as §4

[3] = target: T1, recombinant human protein MAGL (Homo sapiens, UniProt Q99685); test: MAGL enzyme analysis (Cayman MAGL inhibitor screening kit); assay type: biochemical; settings: 4-nitrophenylacetic acid substrate, absorbance 410 nm, read-out: MAGLXIC50
T1 construct: purchased Cayman
T1 sequence (Q99685 1-303): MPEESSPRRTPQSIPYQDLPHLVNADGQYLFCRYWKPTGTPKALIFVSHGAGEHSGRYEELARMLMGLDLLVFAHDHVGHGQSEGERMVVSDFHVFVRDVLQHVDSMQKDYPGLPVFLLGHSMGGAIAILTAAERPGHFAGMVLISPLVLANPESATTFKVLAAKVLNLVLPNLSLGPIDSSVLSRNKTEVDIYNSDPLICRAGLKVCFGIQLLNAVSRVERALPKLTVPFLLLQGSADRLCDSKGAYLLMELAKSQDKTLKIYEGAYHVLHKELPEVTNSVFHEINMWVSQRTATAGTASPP
Protocol: 150 µL 1Xassay buffer, 10 µL recombinant human protein MAGL and 10 µL different concentrations of MAGL inhibitors (six points within 1 nM to 1000 nM) were added to per well of a 96-well plate. JZL195 (a positive control inhibitor) served as a positive control well, after incubation for 5 min at room temperature, per well was added with 10 µL MAGL substrate, and […] were vibrated for 10 s and placed for 10 min at room temperature, then an absorbance was detected at 410 nm. […] Graphad Prism 5.0 was taken to calculate IC50 curves fitting each inhibitor.

[4] = Tissue distribution test in mice; assay type: in vivo; parameters: content in the brain (tissue distribution): unit not given here; settings: 16 mg/kg subcutaneous injection
[5] = tested on: reserpine-induced mice depression; test: Reserpine-induced mice depression; assay type: in vivo, ICR mouse; parameters: Awakening / Finger contact / Head touch / Fear / Autonomic activity / Eyelid closure / Upright: scale not given here; settings: for Eyelid closure: 2 h after reserpine 4 mg/kg
Protocol: • Species: ICR mouse • Microbiological level: SPF • Quantity and sex of the animals purchased: male: 75; female: 75 • Quantity and sex of the animals used: male: 75; female: 75 • Body weight: 13-18 g when accepted
Group design: there were 50 pieces for each batch of animals and 3 batches in total; each batch of animals were randomly divided into 5 groups; low, middle and high-dose groups of the samples for test, blank control group and model group; a sample for test was tested per batch.
3.1 Animals were administrated via subcutaneous injection per day with doses of 4, 8 and 16 mg/kg for 6 d in total. 2 h later after the final administration, each animal was subcutaneously injected with 4 mg/kg reserpine except the blank control group; afterwards, indicators, such as, awakening, finger contact, fear, head touch, autonomic activity, upright and eyelid closure were determined 2 h later.
Data statistics and analysis were completed via a computer by SPSS 17.0 software and office 2016, and data statistics was inspected by Kruskal-Wallis. If the Kruskal-Wallis inspection result is significant ((P<0.05), multiple comparison inspection is further performed by a Mann-Whitney U nonparametric test method.

Row | IC50 [3] [nM] | content in the brain, ranking of the test substances [4] | content in the brain (tissue distribution) ([4]; 1.0 h) | content in the brain (tissue distribution) ([4]; 2.0 h) | content in the brain (tissue distribution) ([4]; 5.0 h) | SMILES | accumulated immobility time of mice forced swimming test, in words ([1]; 5 mg/kg intragastric 10 d, P<0.05) | Accumulated immobility time [1] [S] | Accumulated immobility time [2] [S] | effect on reserpine-induced depression (conclusion) ([5]; 4, 8 and 16 mg/kg sc 6 d) | Eyelid closure ([5]; high dose 16 mg/kg sc 6 d) | Eyelid closure ([5]; low dose 4 mg/kg sc 6 d) | Eyelid closure ([5]; middle dose 8 mg/kg sc 6 d)
1 | – | – | – | – | – | CNCCC(Oc1ccc(C(F)(F)F)cc1)c1ccccc1 (stereo not drawn) [Fluoxetine hydrochloride capsule, Fluoxetine hydrochloride, reference compound] | obviously shorten | 92.64±29.17 | 92.19±23.63 | – | – | – | –
2 | – | – | – | – | – | O=C(Nc1cccc(O)c1)C1CCN(C(=O)c2ccc(Cl)cc2)CC1 [MAGLZ-II-06] | – | 89.23±46.37 | 90.73±30.51 | – | – | – | –
3 | – | – | – | – | – | COc1cccc(C(=O)N2CCC(C(=O)Nc3ccc(Cl)cc3)CC2)c1 [MAGLZ-II-07] | – | 91.31±41.85 | 89.66±31.52 | – | – | – | –
4 | 15 | ranking the second | 2.9 | 9.4 | 4.8 | O=C(Nc1cccc(Cl)c1)C1CCN(C(=O)c2ccc3ccccc3c2)CC1 [MAGLZ-II-17] | – | 79.38±41.67 | 89.87±29.68 | may enhance the effect | 0.25±0.66 | 2.25±0.66 | 1±1.00
